For this experiment, the system named is Barnyardgrass (Echinochloa crus-galli). Put plainly: Effect of adjuvant on glyphosate-IPA efficacy on barnyardgrass with simulated rainfall. The experiment is classed as in vivo. The conditions noted are these: 0.75 wt % glyphosate-IPA without adjuvant, rainfall 2 h after application. Here is the method: Barnyardgrass (Echinochloa crus-galli) 10 cm in height were treated with 0.75 wt % (a.i.) glyphosate, isopropylamine salt (Monsanto), either alone, or plus a spray adjuvant (0.05 and 0.1 wt % respectively). The spray was applied at 100 L/ha using a T-Jet 8002E nozzle. The plants were subjected to simulated rainfall (2.5 cm), 2 h after herbicide application, to determine the rainfastening ability of the adjuvants. Plants were evaluated at week 1 and 2 weeks after treatment, by visual observation, relative to the untreated check. A score of 0 means no plant injury, while a score of 100 indicates total control (burndown, with no regrowth).

The values below come from patent US6534077B2, “Organosiloxane containing modified groups in agricultural compositions” (Crompton Corporation, priority 2000, dated 2003).

`CC(C)N.O=C(O)CNCP(=O)(O)O` [glyphosate-IPA, glyphosate, isopropylamine salt]: the “Percent Control 1 WAT” value (1 week after treatment) was 7.5d %. Also, the “Percent Control 2 WAT” value (2 weeks after treatment) is reported as 18.75c %.
